Patent publication US4161520A, “Method of treating hypertension” (priority 1976, dated 1979)

Tests used:
Format in all cases: in vivo
[1] = system: spontaneous hypertensive (SH) rat; test: Effects on blood pressure in the spontaneous hypertensive (SH) rat (Example 2, Table II)
Method: Test conducted for effects on blood pressure in the spontaneous hypertensive (SH) rat.
Twelve week old spontaneous hypertensive male rats (Okomoto strain) are used as a model in the antihypertensive test.
Systolic blood pressure is measured indirectly from the tail of unanesthetized rats using a pneumatic pulse transducer. Control readings are taken prior to drug administration and post drug readings are taken at 1, 3, 6 and 24 hours.
Drug-related alteration in systolic blood pressure is expressed as percentage change by comparing control absolute values with post drug absolute values.
The results are expressed as absolute values and percent changes from controls.
Compounds are considered active when about a 15% or greater reduction in blood pressure is obtained. However, the reduction in blood pressure must show mathematical significance ([…]). The compound was administered for a five-day period by intubation and thereafter dosing was discontinued but blood pressure monitoring was continued.

DOCA Na hypertensive rat = test: Antihypertensive activity, subacute oral dosing in the DOCA Na rat (Example 1, Table I)
Method: (§1) A test was conducted for antihypertensive activity in the DOCA Na rat. DOCA rats weighing 170 to 210 grams are used in the test. DOCA Na hypertension is induced by unilateral nephrectomy followed by subcutaneous implantation of a 25 mg. desoxycorticosterone (DOCA) pellet. Animals are placed in individual cages receiving 0.9% sodium chloride solution to drink and rat chow diet ad libitum. Two weeks are allowed to elapse from the time of surgery for development of hypertension, i.e., systolic blood pressure of at least 150 mmHg.
Systolic blood pressure and heart rate are measured indirectly from the tail pressure pulse of unanesthetized rats, using a pneumatic pulse transducer. Control readings are taken prior to drug and post drug readings are taken at 1, 3, 6 and 24 hours.
(§2) The experimental results are represented as absolute values. Drug-related alterations in systolic blood pressure are expressed as percentage change by comparing control absolute values with post drug absolute values. Compounds are considered active when about a 15% or greater reduction in blood pressure is obtained. However, the reduction in blood pressure must show mathematical significance ([…]).
A derivative of the polyether ionophore, lasalocid, i.e., the bromo derivative of lasalocid, was tested in the above screen. The compound was orally administered for a five-day period by intubation and thereafter dosing was discontinued but blood pressure monitoring was continued. The following table illustrates the results obtained utilizing bromolasalocid as the test drug.

[2] = Oral (per os) toxicity (LD50); details: in vivo, read-out: LD50
DOCA Na rat = test: Low dose chronic administration in the DOCA Na rat (Example 4, Table IV); details: for Stroke Volume Index, mean value: control 4.82±0.31; for Pulse pressure, mean value: control 62.5±5.3; for Arterial blood pressure, mean value: control 175.0±3.8; for Arterial blood pressure, % Δ / Pulse pressure, % Δ / Stroke Volume Index, % Δ: vs control
Method: A test was conducted for antihypertensive activity in the DOCA Na rat utilizing low dose chronic administration.
as §1, with “DOCA” for “A test was conducted for antihypertensive activity in the DOCA”, “male” for “rat. DOCA”
Mean blood pressure and heart rate in the rats dosed at 5 mg/kg/day, 1 mg/kg/day, 0.1 mg/kg/day and as those used as controls are measured directly by placing a polyethylene catheter in a femoral artery and thereafter measuring the blood pressure by a Stathem Pressure Transducer. Control animals and drug dosed subjects are measured side by side. Direct readings were taken when the animal model began to show signs of inherent deterioration.
as §2, with “mean” for “systolic”, “with” for “with post”
A derivative of the polyether ionophore, laslaocid, i.e., the bromo derivative of lasalocid, was tested in the above screen. The compound was administered in a food admix on a daily basis.

[3] = 0.1 mg/kg/day in food admix, at 24 Days
[4] = 1 mg/kg/day in food admix, at 28 Days
[5] = 5 mg/kg/day in food admix, at 11 Days

## CC[C@@H](C(=O)[C@@H](C)[C@@H](O)[C@H](C)CCc1c(Br)cc(C)c(O)c1C(=O)O)[C@H]1O[C@](CC)([C@H]2CC[C@](O)(CC)[C@H](C)O2)C[C@@H]1C [bromolasalocid]
[1]; 10 mg/kg per day for 5 days, Day 1 pm, pre-drug 227, p<.05
  Average Systolic Blood Pressure Per Group: 211 mmHg
[1]; 10 mg/kg per day for 5 days, Day 2 am, pre-drug 227
  Average Systolic Blood Pressure Per Group: 215 mmHg
[1]; 10 mg/kg per day for 5 days, Day 2 pm, pre-drug 227
  Average Systolic Blood Pressure Per Group: 217 mmHg
[1]; 10 mg/kg per day for 5 days, Day 3 am, pre-drug 227, p<.05
  Average Systolic Blood Pressure Per Group: 203 mmHg
[1]; 10 mg/kg per day for 5 days, Day 3 pm, pre-drug 227, p<.05
  Average Systolic Blood Pressure Per Group: 199 mmHg
[1]; 10 mg/kg per day for 5 days, Day 4 am, pre-drug 227, p<.05
  Average Systolic Blood Pressure Per Group: 193 mmHg
[1]; 10 mg/kg per day for 5 days, Day 4 pm, pre-drug 227, p<.05
  Average Systolic Blood Pressure Per Group: 198 mmHg
[1]; 10 mg/kg per day for 5 days, Day 5 am, pre-drug 227, p<.05
  Average Systolic Blood Pressure Per Group: 200 mmHg
[1]; 10 mg/kg per day for 5 days, Day 5 pm, pre-drug 227, p<.05
  Average Systolic Blood Pressure Per Group: 209 mmHg
[1]; 10 mg/kg per day for 5 days, Day 8 am, pre-drug 227, p<.05
  Average Systolic Blood Pressure Per Group: 199 mmHg
[1]; 20 mg/kg per day for 5 days, Day 1 pm, pre-drug 211
  Average Systolic Blood Pressure Per Group: 201 mmHg
[1]; 20 mg/kg per day for 5 days, Day 2 am, pre-drug 211
  Average Systolic Blood Pressure Per Group: 209 mmHg
[1]; 20 mg/kg per day for 5 days, Day 2 pm, pre-drug 211
  Average Systolic Blood Pressure Per Group: 200 mmHg
[1]; 20 mg/kg per day for 5 days, Day 3 am, pre-drug 211
  Average Systolic Blood Pressure Per Group: 214 mmHg
[1]; 20 mg/kg per day for 5 days, Day 3 pm, pre-drug 211
  Average Systolic Blood Pressure Per Group: 209 mmHg
[1]; 20 mg/kg per day for 5 days, Day 4 am, pre-drug 211
  Average Systolic Blood Pressure Per Group: 205 mmHg
[1]; 20 mg/kg per day for 5 days, Day 4 pm, pre-drug 211
  Average Systolic Blood Pressure Per Group: 204 mmHg
[1]; 20 mg/kg per day for 5 days, Day 5 am, pre-drug 211
  Average Systolic Blood Pressure Per Group: 210 mmHg
[1]; 20 mg/kg per day for 5 days, Day 5 pm, pre-drug 211, p<.05
  Average Systolic Blood Pressure Per Group: 187 mmHg
[1]; 20 mg/kg per day for 5 days, Day 8 am, pre-drug 211
  Average Systolic Blood Pressure Per Group: 210 mmHg
[1]; 50 mg/kg per day for 5 days, Day 1 pm, pre-drug 215
  Average Systolic Blood Pressure Per Group: 208 mmHg
[1]; 50 mg/kg per day for 5 days, Day 2 am, pre-drug 215, p<.05
  Average Systolic Blood Pressure Per Group: 193 mmHg
[1]; 50 mg/kg per day for 5 days, Day 2 pm, pre-drug 215, p<.05
  Average Systolic Blood Pressure Per Group: 176 mmHg
[1]; 50 mg/kg per day for 5 days, Day 3 am, pre-drug 215, p<.05
  Average Systolic Blood Pressure Per Group: 175 mmHg
[1]; 50 mg/kg per day for 5 days, Day 3 pm, pre-drug 215, p<.05
  Average Systolic Blood Pressure Per Group: 160 mmHg
[1]; 50 mg/kg per day for 5 days, Day 4 am, pre-drug 215, p<.05
  Average Systolic Blood Pressure Per Group: 183 mmHg
[1]; 50 mg/kg per day for 5 days, Day 4 pm, pre-drug 215, p<.05
  Average Systolic Blood Pressure Per Group: 169 mmHg
[1]; 50 mg/kg per day for 5 days, Day 5 am, pre-drug 215, p<.05
  Average Systolic Blood Pressure Per Group: 184 mmHg
[1]; 50 mg/kg per day for 5 days, Day 5 pm, pre-drug 215, p<.05
  Average Systolic Blood Pressure Per Group: 167 mmHg
[1]; 50 mg/kg per day for 5 days, Day 8 am, pre-drug 215
  Average Systolic Blood Pressure Per Group: 207 mmHg
[1]; 100 mg/kg per day for 5 days, Day 1 pm, pre-drug 218, p<.05
  Average Systolic Blood Pressure Per Group: 176 mmHg
[1]; 100 mg/kg per day for 5 days, Day 2 am, pre-drug 218, p<.05
  Average Systolic Blood Pressure Per Group: 185 mmHg
[1]; 100 mg/kg per day for 5 days, Day 2 pm, pre-drug 218, p<.05
  Average Systolic Blood Pressure Per Group: 142 mmHg
[1]; 100 mg/kg per day for 5 days, Day 3 am, pre-drug 218, p<.05
  Average Systolic Blood Pressure Per Group: 128 mmHg
[1]; 100 mg/kg per day for 5 days, Day 3 pm, pre-drug 218, p<.05
  Average Systolic Blood Pressure Per Group: 123 mmHg
[1]; 100 mg/kg per day for 5 days, Day 4 am, pre-drug 218, p<.05
  Average Systolic Blood Pressure Per Group: 113 mmHg
[1]; 100 mg/kg per day for 5 days, Day 4 pm, pre-drug 218, p<.05
  Average Systolic Blood Pressure Per Group: 131 mmHg
[1]; 100 mg/kg per day for 5 days, Day 5 pm, pre-drug 218, p<.05
  Average Systolic Blood Pressure Per Group: 108 mmHg
DOCA Na hypertensive rat; 5 mg/kg per day oral for 5 days, Day 2 am, pre-drug 209
  Average Systolic Blood Pressure Per Group: 206 mmHg
DOCA Na hypertensive rat; 5 mg/kg per day oral for 5 days, Day 2 pm, pre-drug 209
  Average Systolic Blood Pressure Per Group: 194 mmHg
DOCA Na hypertensive rat; 5 mg/kg per day oral for 5 days, Day 3 pm, pre-drug 209
  Average Systolic Blood Pressure Per Group: 191 mmHg
DOCA Na hypertensive rat; 5 mg/kg per day oral for 5 days, Day 4 am, pre-drug 209
  Average Systolic Blood Pressure Per Group: 206 mmHg
DOCA Na hypertensive rat; 5 mg/kg per day oral for 5 days, Day 5 am, pre-drug 209
  Average Systolic Blood Pressure Per Group: 197 mmHg
DOCA Na hypertensive rat; 5 mg/kg per day oral for 5 days, Day 5 pm, pre-drug 209
  Average Systolic Blood Pressure Per Group: 196 mmHg
DOCA Na hypertensive rat; 10 mg/kg per day oral for 5 days, Day 1 pm, pre-drug 217, p<.05
  Average Systolic Blood Pressure Per Group: 192 mmHg
DOCA Na hypertensive rat; 10 mg/kg per day oral for 5 days, Day 2 am, pre-drug 217, p<.05
  Average Systolic Blood Pressure Per Group: 181 mmHg
DOCA Na hypertensive rat; 10 mg/kg per day oral for 5 days, Day 2 pm, pre-drug 217, p<.05
  Average Systolic Blood Pressure Per Group: 166 mmHg
DOCA Na hypertensive rat; 10 mg/kg per day oral for 5 days, Day 3 am, pre-drug 217, p<.05
  Average Systolic Blood Pressure Per Group: 171 mmHg
DOCA Na hypertensive rat; 10 mg/kg per day oral for 5 days, Day 3 pm, pre-drug 217, p<.05
  Average Systolic Blood Pressure Per Group: 163 mmHg
DOCA Na hypertensive rat; 10 mg/kg per day oral for 5 days, Day 4 am, pre-drug 217, p<.05
  Average Systolic Blood Pressure Per Group: 173 mmHg
DOCA Na hypertensive rat; 10 mg/kg per day oral for 5 days, Day 4 pm, pre-drug 217, p<.05
  Average Systolic Blood Pressure Per Group: 157 mmHg
DOCA Na hypertensive rat; 10 mg/kg per day oral for 5 days, Day 5 pm, pre-drug 217, p<.05
  Average Systolic Blood Pressure Per Group: 166 mmHg
DOCA Na hypertensive rat; after oral dosing for the first five consecutive days
  Period for which blood pressure remained below control after drug dosing: 10 days
[2]
  LD50: 1200 mg/kg
DOCA Na rat; [3]
  Stroke Volume Index, mean value: 4.03±0.17
  Pulse pressure, mean value: 41.1±7.4
  Arterial blood pressure, mean value: 132.4±16.0
  Arterial blood pressure, % Δ: -24.34%
  Pulse pressure, % Δ: -34.24%
  Stroke Volume Index, % Δ: -16.39%
DOCA Na rat; [4]
  Stroke Volume Index, mean value: 5.86±.31
  Pulse pressure, mean value: 45±3.5
  Arterial blood pressure, mean value: 140.1±16
  Arterial blood pressure, % Δ: -19.94%
  Pulse pressure, % Δ: -28.00%
  Stroke Volume Index, % Δ: 21.58%
DOCA Na rat; [5]
  Stroke Volume Index, mean value: 4.96±0.61
  Pulse pressure, mean value: 47.4±7.3
  Arterial blood pressure, mean value: 140.0±12.6
  Arterial blood pressure, % Δ: -20.00%
  Pulse pressure, % Δ: -24.16%
  Stroke Volume Index, % Δ: 2.90%
DOCA Na rat; chronic administration
  blood pressure (in words): lowered
  pulse pressure (in words): lowered
  pump performance (in words): competent
  stroke volume index (in words): no significant alteration has occurred
